Assay results as given in ChEMBL document CHEMBL1201862, “PubChem BioAssay data set” (2004).
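In this assay, cells in 96-well plates receive the compound at five concentrations for 48 hours. Endpoints are linearly interpolated between the surrounding concentrations. GI50 = concentration required for 50% inhibition of growth.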 Active and inactive are the calls of the source. Rule as the data show it: active = GI50 up to about 1.1 µM and inactive = higher.

Legend:
Assay in all cases: DTP human tumour cell line panel, 48 h
BT-549 = system: BT-549
DU-145 = system: DU-145
EKVX = system: EKVX
HCT-15 = system: HCT-15
HL-60 = system: HL-60
HT-29 = system: HT-29
KM12 = system: KM12
M14 = system: M14
MDA-MB-435 = system: MDA-MB-435
MDA-N = system: MDA-N
NCI-H226 = system: NCI-H226
NCI-H460 = system: NCI-H460
RPMI-8226 = system: RPMI-8226
SK-MEL-28 = system: SK-MEL-28
SN12C = system: SN12C
SR = system: SR
SW-620 = system: SW-620
T47D = system: T47D
U-251 = system: U-251
UO-31 = system: UO-31

SMILES | GI50 (BT-549) | GI50 (DU-145) | GI50 (EKVX) | GI50 (HCT-15) | GI50 (HL-60) | GI50 (HT-29) | GI50 (KM12) | GI50 (M14) | GI50 (MDA-MB-435) | GI50 (MDA-N) | GI50 (NCI-H226) | GI50 (NCI-H460) | GI50 (RPMI-8226) | GI50 (SK-MEL-28) | GI50 (SN12C) | GI50 (SR) | GI50 (SW-620) | GI50 (T47D) | GI50 (U-251) | GI50 (UO-31)
Cc1c(N)nc(C(CC(N)=O)NCC(N)C(N)=O)nc1C(=O)NC(C(=O)NC(C)C(O)C(C)C(=O)NC(C(=O)NCCc1nc(-c2nc(C(=O)NCCCNC(C)c3ccccc3)cs2)cs1)C(C)O)C(OC1OC(CO)C(O)C(O)C1OC1OC(CO)C(O)C(OC(N)=O)C1O)c1c[nH]cn1 (configuration not stated) | 18.2 µM (inactive) | 7.29 µM (inactive) | 47.1 µM (inactive) | 5.24 µM | 7.59 µM (inactive) | 21.1 µM (inactive) | 16.6 µM (inactive) | 3.27 µM (inactive) | > 50 µM (inactive) | > 50 µM (inactive) | 0.184 µM (active) | 0.0482 µM (active) | 3.21 µM (inactive) | 31.5 µM (inactive) | 2.07 µM (inactive) | 2.3 µM (inactive) | 17.7 µM (inactive) | 5.26 µM (inactive) | 1.26 µM (inactive) | 0.283 µM (active)
O=C1C=CC(=O)c2c(O)ccc(O)c21 [NAPHTHAZALIN] | 2.04 µM (inactive) | 14.8 µM (inactive) | 2.75 µM (inactive) | 0.753 µM | 0.292 µM (active) | 2.17 µM (inactive) | 5.25 µM (inactive) | 0.581 µM (active) | 3.68 µM (inactive) | 2.75 µM (inactive) | 9.25 µM (inactive) | 2.47 µM (inactive) | 0.436 µM (active) | 1.34 µM (inactive) | 1.33 µM (inactive) | 0.222 µM (active) | 0.377 µM (active) | 2.07 µM (inactive) | 5.79 µM (inactive) | 2.11 µM (inactive)
COc1cc(C2c3cc4c(cc3OC(NN=C(C)C)C2C)OCO4)cc(OC)c1O (configuration not stated) | 12.2 µM (inactive) | 24.1 µM (inactive) | – | 7.43 µM | – | 36 µM (inactive) | 21.2 µM (inactive) | 22.6 µM (inactive) | 1.24 µM (inactive) | 3 µM (inactive) | > 100 µM (inactive) | – | 6.21 µM (inactive) | 11.5 µM (inactive) | 8.39 µM (inactive) | 1.44 µM (inactive) | 6.93 µM (inactive) | 69.2 µM (inactive) | 29.2 µM (inactive) | 46.9 µM (inactive)
COP(=O)(OC)C(O)/C=C/c1ccco1 (configuration not stated) | > 100 µM (inactive) | > 100 µM (inactive) | > 100 µM (inactive) | > 100 µM | > 100 µM (inactive) | > 100 µM (inactive) | > 100 µM (inactive) | > 100 µM (inactive) | > 100 µM (inactive) | > 100 µM (inactive) | > 100 µM (inactive) | – | > 100 µM (inactive) | > 100 µM (inactive) | > 100 µM (inactive) | > 100 µM (inactive) | > 100 µM (inactive) | > 100 µM (inactive) | > 100 µM (inactive) | > 100 µM (inactive)
CCCc1nc(Cl)c(Cl)c(Cl)n1 | 23.2 µM (inactive) | 35 µM (inactive) | 21.4 µM (inactive) | 15.8 µM | 15.4 µM (inactive) | > 47.6 µM (inactive) | 38.6 µM (inactive) | 25.4 µM (inactive) | 20.1 µM (inactive) | 33.8 µM (inactive) | 36.6 µM (inactive) | 38.9 µM (inactive) | – | 56.5 µM (inactive) | 19.6 µM (inactive) | 5.78 µM (inactive) | 14.8 µM (inactive) | 17.5 µM (inactive) | 14.7 µM (inactive) | 2.71 µM (inactive)
O=C(O)C1OC1C(=O)O (configuration not stated) | > 100 µM (inactive) | > 100 µM (inactive) | > 100 µM (inactive) | > 100 µM | – | > 100 µM (inactive) | > 100 µM (inactive) | > 100 µM (inactive) | > 100 µM (inactive) | > 100 µM (inactive) | > 100 µM (inactive) | > 100 µM (inactive) | > 100 µM (inactive) | > 100 µM (inactive) | > 100 µM (inactive) | > 100 µM (inactive) | > 100 µM (inactive) | > 100 µM (inactive) | > 100 µM (inactive) | > 100 µM (inactive)
COP(=O)(OC)[C@@](O)(c1ccccc1)[C@@H](O)[C@@H](O)c1ccccc1 | > 100 µM (inactive) | > 100 µM (inactive) | > 100 µM (inactive) | > 100 µM | > 100 µM (inactive) | > 100 µM (inactive) | > 100 µM (inactive) | > 100 µM (inactive) | > 100 µM (inactive) | 85.3 µM (inactive) | > 100 µM (inactive) | > 100 µM (inactive) | – | > 100 µM (inactive) | > 100 µM (inactive) | 0.531 µM (active) | 44.7 µM (inactive) | > 100 µM (inactive) | 88.5 µM (inactive) | > 100 µM (inactive)
CCOc1ccccc1Nc1ccc(N)cc1S(=O)(=O)O | > 100 µM (inactive) | > 100 µM (inactive) | > 100 µM (inactive) | > 100 µM | – | > 100 µM (inactive) | > 100 µM (inactive) | > 100 µM (inactive) | > 100 µM (inactive) | > 100 µM (inactive) | > 100 µM (inactive) | > 100 µM (inactive) | – | > 100 µM (inactive) | > 100 µM (inactive) | > 100 µM (inactive) | > 100 µM (inactive) | > 100 µM (inactive) | > 100 µM (inactive) | > 100 µM (inactive)
Cn1c(-c2cccs2)cc(-c2ccsc2)c1-c1cccs1 | > 100 µM (inactive) | 87.1 µM (inactive) | 10.2 µM (inactive) | 88.9 µM | – | 55.3 µM (inactive) | > 100 µM (inactive) | 92.3 µM (inactive) | 57.4 µM (inactive) | 55.3 µM (inactive) | > 100 µM (inactive) | 48.1 µM (inactive) | – | 99.1 µM (inactive) | > 100 µM (inactive) | > 100 µM (inactive) | > 100 µM (inactive) | 3.04 µM (inactive) | > 100 µM (inactive) | > 100 µM (inactive)
CC[C@H](C)C1=C(OC(C)=O)[N@+]2([O-])Oc3ccc(-c4c(O)c(O)c(-c5ccc(OC(C)=O)cc5)c(OC(C)=O)c4OC(C)=O)cc3O[C@]2([C@@H](C)CC)C(=O)N1O | 16.9 µM (inactive) | 44.5 µM (inactive) | 18.8 µM (inactive) | 19.2 µM | 15.9 µM (inactive) | 17.6 µM (inactive) | 20.6 µM (inactive) | 28.2 µM (inactive) | 27.1 µM (inactive) | 23.2 µM (inactive) | – | 18.5 µM (inactive) | 7.85 µM (inactive) | 27 µM (inactive) | 19.4 µM (inactive) | 13.6 µM (inactive) | 11.1 µM (inactive) | 15.1 µM (inactive) | 24.3 µM (inactive) | 35 µM (inactive)
O=C1c2ccccc2C(=O)c2c(NCCNC(=O)C3CCCN3)ccc(NCCNC(=O)C3CCCN3)c21 (configuration not stated) | 29.9 µM (inactive) | 70.1 µM (inactive) | > 100 µM (inactive) | > 100 µM | 31 µM (inactive) | 47.4 µM (inactive) | 23.2 µM (inactive) | > 100 µM (inactive) | 55.8 µM (inactive) | 46.5 µM (inactive) | > 100 µM (inactive) | – | 22.6 µM (inactive) | 41.7 µM (inactive) | 46 µM (inactive) | 22 µM (inactive) | 40.4 µM (inactive) | 30 µM (inactive) | 37.2 µM (inactive) | 31.5 µM (inactive)
O=C(/N=N/c1ccc(Cl)cc1Cl)NNc1ccc(Cl)cc1Cl | 14.8 µM (inactive) | 14.7 µM (inactive) | – | 19.6 µM | 20.7 µM (inactive) | 37.2 µM (inactive) | – | > 10 µM (inactive) | 16.1 µM (inactive) | 16.2 µM (inactive) | 19 µM (inactive) | 16.4 µM (inactive) | 19 µM (inactive) | 20.7 µM (inactive) | 16.4 µM (inactive) | 23.2 µM (inactive) | 21.3 µM (inactive) | 21.7 µM (inactive) | 18.5 µM (inactive) | 12 µM (inactive)
COc1cccc(/N=N/C(=N/NC(=O)c2ccc(C)cc2)c2ccc(N(CCC#N)CCC#N)cc2OC)c1 | > 100 µM (inactive) | > 100 µM (inactive) | 22.9 µM (inactive) | > 100 µM | – | 21.2 µM (inactive) | > 100 µM (inactive) | > 100 µM (inactive) | > 100 µM (inactive) | > 100 µM (inactive) | > 100 µM (inactive) | 3.76 µM (inactive) | > 100 µM (inactive) | > 100 µM (inactive) | > 100 µM (inactive) | > 100 µM (inactive) | > 100 µM (inactive) | > 100 µM (inactive) | > 100 µM (inactive) | > 100 µM (inactive)
Cn1c2ccc(Cl)cc2c2ccc3c(c21)C(=O)C=CC3=O | > 10 µM (inactive) | > 10 µM (inactive) | > 10 µM (inactive) | > 10 µM | 8.49 µM (inactive) | > 10 µM (inactive) | > 10 µM (inactive) | > 10 µM (inactive) | > 10 µM (inactive) | > 10 µM (inactive) | > 10 µM (inactive) | > 10 µM (inactive) | > 10 µM (inactive) | > 10 µM (inactive) | > 10 µM (inactive) | > 10 µM (inactive) | > 10 µM (inactive) | > 10 µM (inactive) | > 10 µM (inactive) | –
Nc1c(Cl)cc(-c2nc3ccccc3s2)cc1Cl | > 100 µM (inactive) | > 100 µM (inactive) | > 100 µM (inactive) | > 100 µM | > 100 µM (inactive) | > 100 µM (inactive) | > 100 µM (inactive) | > 100 µM (inactive) | > 100 µM (inactive) | > 100 µM (inactive) | > 100 µM (inactive) | 0.556 µM (active) | – | > 100 µM (inactive) | > 100 µM (inactive) | > 100 µM (inactive) | > 100 µM (inactive) | 4.16 µM (inactive) | > 100 µM (inactive) | > 100 µM (inactive)
